Data reported in article PMC11091888, “Evaluation of Fusobacterium nucleatum Enoyl-ACP Reductase (FabK) as a Narrow-Spectrum Drug Target” (ACS Infectious Diseases, 2024).
In brackets after ≈: the same amount, converted by molar mass. Several values for one entry are separate records, joined by “and”; a condition that tells them apart may be missing. Equal entries are not always repeated. Entries after “also recorded” stand apart in the source; their conditions may differ. Where two headings read alike, the source gives them in different places.

Tests used:
[1] = system: F. nucleatum 23726 mutants JR1-JR4; test: MIC against 681-resistant mutants of F. nucleatum 23726; assay type: cell-based, Fusobacterium nucleatum; settings: for MIC: Fusobacterium nucleatum
Procedure: (§1) Compounds were twofold serially diluted (100–0.2 μg/mL) across a 96-well plate in 100 μL of media used for the specific organism (Table S4). For anaerobes, plates were incubated anaerobically at 37 °C for 1 h and then inoculated with approximately 10^5 to 10^6 CFU/well. Plates were incubated at 37 °C for up to 48 h, and MICs were read by visual inspection.
Overnight cultures of F. nucleatum 23726 were diluted 1:50 in fresh Columbia broth, which was used to inoculate 96-well plates containing twofold serial dilutions of compound 681. After 48 h of incubation, cultures were recovered from wells one dilution below the MIC, and this was used to establish the inocula for the subsequent passage into 96-well plates containing 681. This process was repeated until cultures grew at 8× the original MIC for two consecutive passages. Cultures were then plated onto Columbia blood agar plates and incubated for 72 h at 37 °C. Single colonies were collected into Columbia broth with 0.39 μg/mL of 681 and cultured for up to 48 h and then plated onto selective Columbia blood agar plates to further purify putative 681-resistant colonies.

[2] = system: F. nucleatum 23726; test: Growth in FAS-II inhibitor with or without exogenous fatty acids; assay type: cell-based, Fusobacterium nucleatum; settings: fatty acid mixture of Table S2
Procedure: (§2) To plates containing twofold serial dilutions of compounds, exponential phase cultures were added to a final OD600nm of 0.1. Plates containing F. nucleatum in Columbia broth were incubated at 37 °C inside of a Tecan Infinite 200 Pro, which was inside an anaerobic chamber; growth kinetics for Streptococcus spp. in brain heart infusion broth were done aerobically in the same Tecan instrument.

[3] = system: S. pyogenes 19615; test: as above; assay type: cell-based, Streptococcus pyogenes; settings: fatty acid mixture of Table S2
Procedure: as §2

[4] = system: E. faecalis FA2–2ΔfabK; test: MIC against E. faecalis FA2-2 fabI+ (ΔfabK, possesses only FabI); assay type: cell-based, Enterococcus faecalis
Procedure: as §1

[5] = system: Streptococci; test: MIC, all tested Streptococci; assay type: cell-based; settings: text summary of Table 4; read-out: MICs against all tested Streptococci
Procedure: as §1

[6] = molecular target: FnFabK (Fusobacterium nucleatum subsp. nucleatum, UniProt Q8RGV3); test: biochemical
Chain of FnFabK (Q8RGV3 entry or part of it): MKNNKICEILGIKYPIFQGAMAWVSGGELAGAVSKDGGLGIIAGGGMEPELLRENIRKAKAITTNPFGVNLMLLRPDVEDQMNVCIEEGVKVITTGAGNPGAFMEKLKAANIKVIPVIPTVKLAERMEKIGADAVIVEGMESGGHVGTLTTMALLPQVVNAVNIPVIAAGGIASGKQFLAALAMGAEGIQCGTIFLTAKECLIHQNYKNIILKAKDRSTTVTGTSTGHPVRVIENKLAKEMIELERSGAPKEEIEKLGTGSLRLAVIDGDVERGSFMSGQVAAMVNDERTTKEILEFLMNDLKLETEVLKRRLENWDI
Procedure: Incubation lasted for a total of 10 min before the addition of crotonyl-CoA substrate, and the reaction was initiated by the addition of NADH for a final assay volume of 100 μL. The oxidation of NADH to NAD+ was measured by tracking fluorescence (340 nm/460 nm) with a Biotek Synergy H1 microplate reader in 15 s intervals for a total of 10 min to monitor the rate of reaction. The reaction was conducted in Greiner Bio-One 384-well μClear Bottom Polystyrene Microplates. […] Measurements were conducted in triplicate, and IC50’s were calculated via GraphPad Prism 9.1.2 using four-parameter logistic (Hill) curve analysis using equation Y = bottom + (top – bottom)/[1 + 10 (Log IC50 – X) × Hill Slope], where X is the logarithm of the dose and Y is the response. The assay concentrations of the cofactor, NADH, and substrate, crotonyl-CoA, were also determined via GraphPad Prism 9.1.2 using the substrate inhibition model to determine Km(app).

[7] = system: F. nucleatum 23726 complementation strains; test: MIC against F. nucleatum 23726 carrying FabK alanine-132 or threonine-132 under the wild-type fabK promoter; assay type: cell-based; settings: Fusobacterium nucleatum
Procedure: The transformation of F. nucleatum 23726 was performed via electroporation as previously described,[41] except that Columbia broth was used. (i) Antisense vector: F. nucleatum gene silencing vector, pHFK2, was developed by inserting the ATc inducible paired-termini antisense sequences from the clostridial vector pMSPT into pCWU6, a F. nucleatum vector.[56] pCWU6 was amplified by PCR (CloneAmp polymerase) and recombined with the BamHI and KpnI fragments of pMSPT containing the Tet promoter and paired-termini sequences.[26] Antisense nucleotides targeting either 50 bp upstream and downstream of the fabK start codon (FabKAS1) or 25 bp upstream and 75 bp downstream (FabKAS2) were cloned into SphI and XhoI restriction sites of pHFK2. (ii) Complementation vectors: these were generated by PCR amplifying the fabK promoter and gene and introducing KpnI and HindIII restriction sites at 5′ and 3′ ends, respectively. Purified PCR amplicons were inserted into the KpnI and HindIII sites of pCWU6. (iii) Overexpression vectors: the corresponding gene, fabK or fabX, was amplified via PCR, introducing HindIII or SacI restriction sites to the 5′ end, respectively. BamHI restriction sites were introduced to the 3′ end of both. Purified PCR amplicons were inserted into the respective restriction sites of pHFK2. (iv) Allelic exchange vector: vector, pCWU8-FabK, was generated using a previously described protocol,[41],[56] whereby 1-kb regions upstream and downstream of fabK were cloned into the suicide vector pCWU8 using a Gibson Assembly Cloning Kit (New England Biolabs). The recombinant vector was transformed into strain F. nucleatum 23726ΔgalK, and successful integrants were collected that were resistant to thiamphenicol (5 μg/mL). […]
Compounds were twofold serially diluted (100–0.2 μg/mL) across a 96-well plate in 100 μL of media used for the specific organism (Table S4). […] Plates were incubated at 37 °C for up to 48 h, and MICs were read by visual inspection.

[8] = system: E. faecalis FA2–2; test: MIC against wild-type E. faecalis FA2-2 (FabI and FabK); assay type: cell-based, Enterococcus faecalis; settings: E. faecalis FA2-2, possesses both FabI and FabK
Procedure: as §1

[9] = Cytotoxicity against Vero cells (resazurin viability); assay type: cell-based; settings: monkey, Vero epithelial cells, maximum tested concentration 100 μg/mL
Procedure: This was done as described[36] using colorectal carcinoma HCT116 and Vero epithelial cells cultured at 37 °C in 5% CO2 in Dulbecco’s modified Eagle’s medium (DMEM) with 4.5 g/L glucose and L-glutamine. The medium was supplemented with 10% v/v FetalGro (Rocky Mountain Biologicals). Approximately 25,000/well were aliquoted into black 96-well plates (Greiner Bio-One) and incubated overnight, before being resuspended in DMEM supplemented with 20% Gibco KnockOut Serum Replacement (Thermo Fisher Scientific). Compounds (100–1.6 μg/mL) were then added to the cells and incubated for 24 h at 37 °C and 5% CO2. Cell viability was analyzed using resazurin as described.[36]

CS(=O)(=O)c1ccc2nc(NC(=O)NCc3nc(-c4ccc(Br)cc4)c[nH]3)sc2c1 [Compound 681, 1-((4-(4-bromophenyl)-1H-imidazole-2-yl)methyl)-3-(6-(methylsulfonyl)benzo[d]thiazol-2-yl)urea]
MIC against mutant JR2 ([1]; 12 bp deletion upstream of fabX): 3.1 µg/mL (≈ 6.12 µM) | MIC ([1]; read-out: MIC against mutant JR2): 6.3 µg/mL (≈ 12.4 µM) | MIC ([1]; read-out: MICs against mutants JR1-JR4): 3.1 to 12.5 µg/mL (≈ 6.12 to 24.7 µM) | MIC against mutant JR3 ([1]; fabK TSS + 1: C > T): 3.1 µg/mL | Effect of exogenous fatty acids on growth inhibition of F. nucleatum [2]: did not attenuate; also recorded: did not rescue | Increase in biomass (OD600nm) in the presence of inhibitor and exogenous fatty acids [3]: 4–5 fold | MIC Ef fabI+ ([4]; E. faecalis FA2-2 ΔfabK, possesses only FabI): 100 µg/mL and >100 µg/mL | MIC ([4]; Enterococcus faecalis, read-out: MIC Ef fabI+, E. faecalis FA2-2 ΔfabK, possesses only FabI): > 100 µg/mL | MIC [5]: < 1.6 µg/mL | IC50 ([6]; IC50 against FnFabK, equivalent concentration, conversion of the μM value): 1.97 µM | Hill coefficient (FnFabK inhibition) ([6]; four-parameter logistic fit): 1.01 | MIC ([7]; read-out: MIC, empty vector control): 0.6 µg/mL | MIC ([7]; read-out: MIC, threonine-132 FabK mutant): 2.5 to 5 µg/mL | MIC ([7]; read-out: MIC, wild-type FabK (alanine-132)): 1.3 µg/mL | MIC Ef wild-type [8]: 100 µg/mL and >100 µg/mL | MIC ([8]; Enterococcus faecalis, read-out: MIC Ef wild-type): > 100 µg/mL | IC50 at 24 h [9]: > 100 µg/mL
